Source: PMC7614683, “A small molecule PI3Kα activator for cardioprotection and neuroregeneration” (Nature, 2023)
Where two headings read alike, the source gives them in different places.

Tests used:
Assay type in all cases: biochemical
[1] = molecular target: T1, PI3Kα N345K mutant (Homo sapiens, UniProt P42336, N345K); assay: ADP-Glo catalytic activity, oncogenic mutant N345K
T1 construct: Full-length human p110α was expressed either in a complex with full-length human p85α (for HTS, biochemistry and HDX-MS); 6xHis tag followed by TEV protease site (N); host or cells: Sf9, baculovirus
Procedure: Expression and purification of wild-type p110α (Cambridge MRC Laboratory for Molecular Biology (LMB-MRC) plasmid number OP831) in a complex with full-length p85α (LMB-MRC plasmid OP809) was performed as described. The oncogenic mutants G106V (LMB-MRC plasmid JB35), N345K (LMB-MRC plasmid OP661) and E545K (LMB-MRC plasmid OP663) were also purified using this protocol. Briefly, 10 litres of Spodoptera frugiperda (Sf9) cell culture at a density of 1.0 x 10^6 cells/ml were co-infected with a p85α-encoding virus [LMB-MRC plasmid OP809]. and a virus encoding p110α with an N-terminal 6xHis tag followed by a tobacco etch virus (TEV) protease site [LMB-MRC plasmid OP831]. After a 48 h infection at 27°C, cells were harvested and washed with PBS. […]
For characterisation of the effects of 1938 on in vitro PI3K enzymology, all reactions were performed at room temperature with 384 white-polystyrene plates (Corning #3574). […] Data was expressed as velocity (nmol of ADP generated/nmol of enzyme/sec). […] Luminescence was read using a PHERAstar® plate reader with software version 5.41, and analyses were performed using GraphPad Prism 8/9.

[2] = molecular target: LRRK2 (Homo sapiens, UniProt Q5S007); assay: SelectScreen Adapta
Procedure: (§1) 133 protein kinases and 7 lipid kinases were counterscreened, with 1938 used at 1 μM, using the Adapta, Lantha and Z-LYTE assays (SelectScreen Kinase Profiling Service; Thermofisher – experimental details of these assays can be found here: https://www.thermofisher.com/uk/en/home/industrial/pharma-biopharma/drug-discovery-development/target-and-lead-identification-and-validation/kinasebiology/kinase-activity-assays.html. The tree represention in KinMap[59] generated courtesy of Cell Signaling Technology, Inc. (www.cellsignal.com). mTORC1 (mTOR/RAPTOR/LST8) protein complex and ATM kinase and substrates were produced as previously described[57],[60]. Screening of 1938 was conducted using SuperSep Phos-Tag 50 μmol/l 100 x 100 x 6.6 mm 17-well (192-18001/199-18011) gels. For ATM assays, 100 nM ATM was incubated for 30 min at 30°C with 5 μM GST-p53 and 1 mM ATP, in the absence or presence of 200 μM 1938 in ATM Kinase Buffer (50 mM HEPES pH 7.5, 100 mM NaCl, 10% glycerol, 2 mM […], 5 mM MgCl2). As a positive control for ATM activation, the same reaction was carried out with 100 nM ATM/5 μM GST-p53/1 mM ATP in the presence of 100 nM Mre11-Rad50-Nbs1 (MRN) complex, a known activator of ATM[61]. For mTORC1 assays, 50 nM mTORC1 complex (mTOR/LST8/RAPTOR) was incubated for 3 h at 30°C with 15 μM 4E-BP1, 10 mM MgCl2 and 250 μM ATP, in the absence or presence of 200 μM 1938. As a ‘positive’ control, a higher concentration (150 nM) of mTORC1 complex (mTOR/LST8/RAPTOR) was incubated for 3 h at 30°C with 15 μM 4E-BP1, 10 mM MgCl2 and 250 μM ATP. Kinase reactions were quenched by addition of SDS-PAGE Loading Buffer (as per manufacturer’s instructions) and freezing at -20°C before being run on the Phos-tag gels at 150 V for 90 min. Gels were then stained using InstantBlue™ Coomassie, and quantified using BioRad Image Lab Software. Kinase assays were carried out in triplicate.

[3] = molecular target: PIK3CA/PIK3R1 (p110 alpha/p85 alpha) (Homo sapiens, UniProt P42336); assay: SelectScreen Adapta
Procedure: as §1

PIK3CA/PIK3R1 (p110 alpha/p85 alpha), sequence (P42336 whole entry): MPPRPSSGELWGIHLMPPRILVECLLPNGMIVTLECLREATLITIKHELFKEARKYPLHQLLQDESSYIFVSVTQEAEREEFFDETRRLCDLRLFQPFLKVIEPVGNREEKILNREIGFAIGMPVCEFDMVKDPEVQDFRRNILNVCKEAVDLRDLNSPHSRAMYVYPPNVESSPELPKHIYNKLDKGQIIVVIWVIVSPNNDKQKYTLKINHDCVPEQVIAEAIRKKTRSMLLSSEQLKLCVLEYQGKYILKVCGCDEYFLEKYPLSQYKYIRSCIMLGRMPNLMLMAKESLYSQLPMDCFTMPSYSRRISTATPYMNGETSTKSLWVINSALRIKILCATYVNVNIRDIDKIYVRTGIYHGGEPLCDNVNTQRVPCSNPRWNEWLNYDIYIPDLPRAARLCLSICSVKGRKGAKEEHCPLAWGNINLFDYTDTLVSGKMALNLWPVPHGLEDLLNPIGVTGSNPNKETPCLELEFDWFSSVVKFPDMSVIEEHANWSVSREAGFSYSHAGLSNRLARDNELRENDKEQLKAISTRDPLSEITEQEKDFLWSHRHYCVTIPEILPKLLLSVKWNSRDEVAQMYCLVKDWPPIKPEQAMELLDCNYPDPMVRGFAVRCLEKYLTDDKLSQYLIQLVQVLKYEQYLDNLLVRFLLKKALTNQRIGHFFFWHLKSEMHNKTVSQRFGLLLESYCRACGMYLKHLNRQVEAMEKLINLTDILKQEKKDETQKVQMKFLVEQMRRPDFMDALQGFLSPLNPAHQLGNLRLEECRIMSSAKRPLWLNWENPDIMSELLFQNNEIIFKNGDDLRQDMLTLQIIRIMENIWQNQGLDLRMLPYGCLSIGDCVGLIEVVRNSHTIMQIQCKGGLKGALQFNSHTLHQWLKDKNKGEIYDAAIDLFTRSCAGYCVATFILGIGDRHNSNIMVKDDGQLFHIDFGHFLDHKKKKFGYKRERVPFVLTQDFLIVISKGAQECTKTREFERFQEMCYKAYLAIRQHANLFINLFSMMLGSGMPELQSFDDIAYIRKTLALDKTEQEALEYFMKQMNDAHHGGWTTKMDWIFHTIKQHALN
PIK3CA/PIK3R1 (p110 alpha/p85 alpha), sequence (P27986 whole entry partner): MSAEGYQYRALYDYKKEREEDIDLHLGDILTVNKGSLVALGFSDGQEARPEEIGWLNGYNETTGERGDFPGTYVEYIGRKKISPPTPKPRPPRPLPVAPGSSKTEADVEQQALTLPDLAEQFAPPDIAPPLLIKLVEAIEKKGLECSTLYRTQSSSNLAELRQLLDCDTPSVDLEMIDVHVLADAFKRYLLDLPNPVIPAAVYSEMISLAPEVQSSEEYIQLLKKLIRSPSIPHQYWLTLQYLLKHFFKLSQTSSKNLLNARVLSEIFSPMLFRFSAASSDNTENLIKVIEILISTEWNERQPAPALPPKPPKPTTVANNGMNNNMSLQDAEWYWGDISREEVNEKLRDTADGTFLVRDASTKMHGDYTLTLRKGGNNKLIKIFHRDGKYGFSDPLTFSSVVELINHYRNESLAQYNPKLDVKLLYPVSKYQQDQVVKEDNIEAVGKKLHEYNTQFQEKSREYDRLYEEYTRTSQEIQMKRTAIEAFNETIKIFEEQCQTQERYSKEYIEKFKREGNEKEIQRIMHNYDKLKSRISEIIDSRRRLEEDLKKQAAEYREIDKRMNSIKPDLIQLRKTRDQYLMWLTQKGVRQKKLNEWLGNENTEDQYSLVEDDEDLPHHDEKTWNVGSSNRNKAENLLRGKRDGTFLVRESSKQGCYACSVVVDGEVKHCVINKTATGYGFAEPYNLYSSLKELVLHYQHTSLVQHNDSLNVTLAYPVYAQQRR
LRRK2, sequence (Q5S007 whole entry): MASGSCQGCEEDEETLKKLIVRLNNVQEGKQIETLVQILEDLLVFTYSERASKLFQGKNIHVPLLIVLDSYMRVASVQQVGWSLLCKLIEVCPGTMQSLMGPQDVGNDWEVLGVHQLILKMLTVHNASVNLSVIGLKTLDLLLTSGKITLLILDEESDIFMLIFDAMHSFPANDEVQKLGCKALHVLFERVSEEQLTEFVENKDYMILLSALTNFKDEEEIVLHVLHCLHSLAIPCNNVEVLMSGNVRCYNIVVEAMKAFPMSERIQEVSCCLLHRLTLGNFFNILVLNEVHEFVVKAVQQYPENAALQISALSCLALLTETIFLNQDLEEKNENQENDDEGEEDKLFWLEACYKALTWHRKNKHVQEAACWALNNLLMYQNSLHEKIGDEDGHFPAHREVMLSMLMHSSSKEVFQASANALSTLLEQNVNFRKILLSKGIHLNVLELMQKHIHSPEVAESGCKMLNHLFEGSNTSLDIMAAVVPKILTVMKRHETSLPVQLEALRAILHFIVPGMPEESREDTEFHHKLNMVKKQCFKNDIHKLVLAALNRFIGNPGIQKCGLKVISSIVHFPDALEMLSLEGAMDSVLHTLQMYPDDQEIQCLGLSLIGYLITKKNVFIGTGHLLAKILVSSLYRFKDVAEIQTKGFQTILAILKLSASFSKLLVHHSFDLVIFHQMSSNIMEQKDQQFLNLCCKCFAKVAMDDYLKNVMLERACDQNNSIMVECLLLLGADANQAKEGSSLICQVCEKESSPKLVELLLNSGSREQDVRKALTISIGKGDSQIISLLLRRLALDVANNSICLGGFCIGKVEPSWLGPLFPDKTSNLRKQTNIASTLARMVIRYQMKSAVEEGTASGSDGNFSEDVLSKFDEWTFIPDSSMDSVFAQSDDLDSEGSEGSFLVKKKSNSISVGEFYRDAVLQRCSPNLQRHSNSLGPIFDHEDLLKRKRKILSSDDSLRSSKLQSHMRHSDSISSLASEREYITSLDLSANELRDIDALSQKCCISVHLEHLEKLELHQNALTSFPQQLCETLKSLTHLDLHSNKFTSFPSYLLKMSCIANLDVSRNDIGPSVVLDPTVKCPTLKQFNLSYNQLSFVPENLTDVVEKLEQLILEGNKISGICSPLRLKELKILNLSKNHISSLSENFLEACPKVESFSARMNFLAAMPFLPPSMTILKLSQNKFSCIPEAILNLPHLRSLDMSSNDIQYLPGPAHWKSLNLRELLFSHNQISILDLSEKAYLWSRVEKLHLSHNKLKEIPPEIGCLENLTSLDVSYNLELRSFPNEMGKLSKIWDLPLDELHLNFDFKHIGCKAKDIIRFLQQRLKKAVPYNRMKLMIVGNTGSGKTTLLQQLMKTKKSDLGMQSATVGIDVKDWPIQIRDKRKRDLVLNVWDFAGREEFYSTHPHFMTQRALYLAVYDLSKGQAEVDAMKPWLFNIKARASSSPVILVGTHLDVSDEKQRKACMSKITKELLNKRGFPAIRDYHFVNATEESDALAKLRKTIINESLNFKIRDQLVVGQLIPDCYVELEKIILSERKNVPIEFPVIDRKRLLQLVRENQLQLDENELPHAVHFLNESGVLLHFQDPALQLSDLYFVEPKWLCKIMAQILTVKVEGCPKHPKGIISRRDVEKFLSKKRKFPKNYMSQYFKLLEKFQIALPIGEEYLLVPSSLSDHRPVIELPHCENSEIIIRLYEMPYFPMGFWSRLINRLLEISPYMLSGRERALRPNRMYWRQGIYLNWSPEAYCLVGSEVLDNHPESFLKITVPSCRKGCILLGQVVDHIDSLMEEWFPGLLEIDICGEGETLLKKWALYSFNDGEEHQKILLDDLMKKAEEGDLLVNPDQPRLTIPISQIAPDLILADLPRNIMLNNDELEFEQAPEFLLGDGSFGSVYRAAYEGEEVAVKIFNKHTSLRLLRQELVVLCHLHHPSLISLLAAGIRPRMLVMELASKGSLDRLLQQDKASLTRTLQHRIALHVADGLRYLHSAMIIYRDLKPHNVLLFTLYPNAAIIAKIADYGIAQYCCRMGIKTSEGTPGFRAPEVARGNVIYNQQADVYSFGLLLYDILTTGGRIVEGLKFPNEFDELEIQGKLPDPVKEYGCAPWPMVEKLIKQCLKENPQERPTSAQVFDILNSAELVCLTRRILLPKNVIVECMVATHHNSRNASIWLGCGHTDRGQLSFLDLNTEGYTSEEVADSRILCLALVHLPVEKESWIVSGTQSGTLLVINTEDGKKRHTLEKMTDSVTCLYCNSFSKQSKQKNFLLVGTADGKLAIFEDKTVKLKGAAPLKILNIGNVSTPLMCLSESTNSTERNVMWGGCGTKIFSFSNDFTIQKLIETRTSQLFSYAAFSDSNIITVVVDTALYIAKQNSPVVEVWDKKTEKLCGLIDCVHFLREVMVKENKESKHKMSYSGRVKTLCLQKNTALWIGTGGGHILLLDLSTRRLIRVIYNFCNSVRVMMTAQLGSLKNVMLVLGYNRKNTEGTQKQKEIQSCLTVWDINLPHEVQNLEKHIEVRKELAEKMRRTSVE
T1 sequence (P42336 whole entry N345K): as the sequence (P42336 whole entry) above, with N345K counted along it
T1 sequence (P27986 whole entry partner): as the sequence (P27986 whole entry partner) above

Question: How did the “activation of N345K mutant” value [1] turn out when `CCN1CCN(c2ccc(Nc3cc(Nc4cccc5c4N(C(C)=O)CC5)ccn3)cc2)CC1` [Compound 1938] was run?
Answer: The value was “levels comparable with stimulation with pY”.

Question: What about the inhibition at 1 µM ([2]; read-out: % Inhibition Point 1) of the same compound?
Answer: The inhibition at 1 µM was 13%.

Question: What about the inhibition at 1 µM ([2]; read-out: % Inhibition Point 2) of the same compound?
Answer: Its inhibition at 1 µM is 18%.

Question: What about the inhibition at 1 µM ([2]; read-out: % Inhibition mean) of the same compound?
Answer: Its inhibition at 1 µM is 16%.

Question: And the inhibition at 1 µM ([3]; read-out: % Inhibition Point 1)?
Answer: Its inhibition at 1 µM is -19%.

Question: What about the inhibition at 1 µM ([3]; read-out: % Inhibition Point 2) of the same compound?
Answer: The inhibition at 1 µM was -20%.

Question: What about the inhibition at 1 µM ([3]; read-out: % Inhibition mean) of the same compound?
Answer: Its inhibition at 1 µM is -19%.
